Results: patent US20260365670A1, “EGFR INHIBITORS AND USES THEREOF” (DIZAL (JIANGSU) PHARMACEUTICAL CO., LTD., priority 2022, published 2026)
Where two headings read alike, the source gives them in different places.

Key:
Assay type in all cases: cell-based
A-431 = assay: Cell proliferation GI50, A-431 cells (Table 6)
Protocol: [Worded in the source for another cell line; this cell line is reported under the same test.] Ba/F3 cells expressing EGFR mutations were seeded in 384-well plates at 5000 cells/well in RPMI1640 medium containing […]. PC-9 at 500 cells/well was seeded into 384-well plates in RPMI1640 medium with 10% FBS. After overnight incubation, the assay plates were dosed with compounds at a series of concentrations. Alongside dosing the assay plates, the day 0 plate was processed using CellTiter-Glo® Luminescent Cell Viability Assay (Promega) to measure the number of viable cells (G0). The assay plates were further incubated for 72 hours and the number of viable cells (G3) was measured. The percentage of proliferation was calculated as: […]=100×(G3 value of sample well−G0 value)/(G3 value of DMSO control−G0 value). The concentration of compound producing 50% proliferation inhibition (GI50) was further calculated in best-fit curves using XLFit software. N/A=not available.

PC-9 = assay: Cell proliferation assay, PC-9 cells (CellTiter-Glo, 72 hours); details: PC9 cells, CellTiter-Glo, read-out: PC9 GI50
Procedure, shortened: (§1)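 In RPMI1640 medium (PC-9 with 10% FBS), each cell line was seeded at its own density: Ba/F3 5000 and PC-9 500 per well. A compound series was added the next day, with a time-zero viability plate read in parallel. Percent proliferation was subtracted for G0 and referenced to DMSO, and GI50 was derived by curve fitting.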

[1] = tested on: Ba/F3 cells expressing EGFR mutations; assay: Cell proliferation assay, Ba/F3 cells expressing EGFR mutations (CellTiter-Glo, 72 hours); details: CellTiter-Glo
Procedure, shortened: as §1

[2] = BaF3 cells, EGFR DEL19-C797S, read-out: DEL19-C797S/BaF3 GI50
[3] = BaF3 cells, EGFR DEL19-T790-C797S, read-out: DEL19-T790-C797S/BaF3 GI50
[4] = BaF3 cells, EGFR L858R, read-out: L858R/BaF3 GI50
[5] = BaF3 cells, EGFR L858R-C797S, read-out: L858R-C797S/BaF3 GI50
[6] = BaF3 cells, EGFR L858R-T790-C797S, read-out: L858R-T790-C797S/BaF3 GI50
[7] = BaF3 cells, EGFR L858R-T790M, read-out: L858R-T790M/BaF3 GI50
[8] = EGFR DEL19-T790M, read-out: DEL19-T790M GI50
[9] = Homo sapiens, A-431, A-431 cells

Row | GI50 (A-431; A-431 cells) [nM] | GI50 (PC-9) [nM] | GI50 [1, 2] [nM] | GI50 [1, 3] [nM] | GI50 [1, 4] [nM] | GI50 [1, 5] [nM] | GI50 [1, 6] [nM] | GI50 [1, 7] [nM] | GI50 [1, 8] [nM] | GI50 (A-431; [9]) [nM] | GI50 (PC-9; Homo sapiens, PC-9, 72 h) [nM] | GI50 ([1]; Mus musculus, BaF3, 72 h, BaF3 cells, EGFR DEL19-C797S, read-out: DEL19-C797S/BaF3 GI50) [nM] | GI50 ([1]; Mus musculus, BaF3, 72 h, BaF3 cells, EGFR DEL19-T790-C797S, read-out: DEL19-T790-C797S/BaF3 GI50) [nM] | GI50 ([1]; Mus musculus, BaF3, 72 h, BaF3 cells, EGFR L858R, read-out: L858R/BaF3 GI50) [nM] | GI50 ([1]; Mus musculus, BaF3, 72 h, BaF3 cells, EGFR L858R-C797S, read-out: L858R-C797S/BaF3 GI50) [nM] | GI50 ([1]; Mus musculus, BaF3, 72 h, BaF3 cells, EGFR L858R-T790-C797S, read-out: L858R-T790-C797S/BaF3 GI50) [nM] | GI50 ([1]; Mus musculus, BaF3, 72 h, BaF3 cells, EGFR L858R-T790M, read-out: L858R-T790M/BaF3 GI50) [nM] | GI50 ([1]; Mus musculus, BaF3, 72 h, EGFR DEL19-T790M, read-out: DEL19-T790M GI50) [nM] | SMILES
1 | 3540 | 2330 | 936 | 2960 | 754 | 1800 | 882 | 2650 | 2030 |  |  |  |  |  |  |  |  |  | Cn1ncc2c1OCCN1CC3CCC(C3)(C1)n1c(nc3ccc(N4CCC(N5CC(F)C5)C4)cc31)NC(=O)c1cc-2c(=O)n(C)c1 (single isomer, unassigned) [Example A94A1, 5-[3-(3-Fluoroazetidin-1-yl)pyrrolidin-1-yl]-15,21-dimethyl-23-oxa-2,9,11,15,20,21,26-heptaazaheptacyclo[24.4.1.1^{1,28}.1^{13,17}.0^{2,10}.0^{3,8}.0^{18,22}]tritriaconta-3,5,7,9,13,17(33),18(22),19-octaene-12,16-dione]
2 |  |  |  |  |  |  |  |  |  | 1410 | 424 | 279 | 830 | 1050 | 1160 | 976 | 803 | 768 | CCN1CCOc2c(cnn2C)-c2cc(cn(C)c2=O)C(=O)Nc2nc3ccccc3n2C(C)(C)C1 [Example A7, 10-Ethyl-5,12,12,26-tetramethyl-7-oxa-4,5,10,13,20,22,26-heptaazapentacyclo[22.3.1.0^{2,6}.0^{13,21}.0^{14,19}]octacosa-1(28),2(6),3,14,16,18,20,24-octaene-23,27-dione]
3 | 483 | 3.3 | 0.69 | 1.3 | 0.69 | 0.8 | 2.5 | 2.7 | 1.2 |  |  |  |  |  |  |  |  |  | CN1CCN(C2CCN(c3ccc4nc5n(c4c3)C34CCC(CN(CCOc6c(cnn6C)-c6cc(cn(C)c6=O)C(=O)N5)C3)C4)C2)CC1 (single isomer, unassigned) [Example A80B, 15,21-Dimethyl-5-[3-(4-methylpiperazin-1-yl)pyrrolidin-1-yl]-23-oxa-2,9,11,15,20,21,26-heptaazaheptacyclo[24.4.1.1^{1,28}.1^{13,17}.0^{2,10}.0^{3,8}.0^{18,22}]tritriaconta-3,5,7,9,13,17(33),18(22),19-octaene-12,16-dione]
4 |  | 3090 | 966 | 2900 | 372 | 1560 | 874 | 2630 | 1250 | 4930 |  |  |  |  |  |  |  |  | CN(C)C1CN(c2ccc3nc4n(c3c2)C23CCC(CN(CCOc5c(cnn5C)-c5cc(cn(C)c5=O)C(=O)N4)C2)C3)CC1(F)F (single isomer, unassigned) [Example A99A]
